ChEMBL document CHEMBL1149570, “Thiotetrazole alkynylacetanilides as potent and bioavailable non-nucleoside inhibitors of the HIV-1 wild type and K103N/Y181C double mutant reverse transcriptases” (Bioorg Med Chem Lett, 2007)

What was measured:
Assay type in all cases: ADME, organism-based
[1] = Cmax in rat at 5 mg/kg, po; parameters: dose 5 mg/kg, route oral; details: in vivo
[2] = AUC in rat at 5 mg/kg, po; parameters: dose 5 mg/kg, route oral; details: plasma
[3] = Oral bioavailability in rat at 5 mg/kg; details: in vivo

Cmax [1] [nM]	AUC [2] [µM·h]	bioavailability [3] [%]	SMILES
260	0.84	29	CC(C)(C#Cc1ccc(NC(=O)CSc2nnnn2-c2ccc(C3CC3)cc2Cl)c(Cl)c1)CNCC(=O)O
5000	9.5	66	CC(C)(C#Cc1ccc(NC(=O)CSc2nnnn2-c2ccc(C3CC3)cc2Cl)c(Cl)c1)C(=O)O
280	1	21	CC(C)(C#Cc1ccc(NC(=O)CSc2nnnn2-c2ccc(C3CC3)cc2Cl)c(Cl)c1)NC(=O)CN
